Test results published in ChEMBL document CHEMBL5579826, “Discovery of autophagy-tethering compounds as potent NLRP3 degraders for IBD Immunotherapy” (Eur J Med Chem, 2024).
Values belong to the compound of their own block, whether it stands above or below them. Activity calls are given as the source filed them. The calls are words filed in the database; no cut-off is given here.

Tests used:
Mus musculus [1] = assay: Anti-inflammatory activity in DSS-induced colitis C57BL/6 mouse model assessed as reduction in inflammatory cell infiltration in colon tissue at 5 to 20 mg/kg, ip administered daily for 10 days by H and E staining based analysis; format: functional, organism-based; conditions: dose 5-20 mg/kg, time 10.0 day
Mus musculus [2] = assay: Anti-inflammatory activity in DSS-induced colitis C57BL/6 mouse model assessed as reduction in loss of intestinal crypts in colon tissue at 5 to 20 mg/kg, ip administered daily for 10 days by H and E staining based analysis; format: functional, organism-based; conditions: dose 5-20 mg/kg, time 10.0 day
[3] = Half life in C57BL/6J mouse at 5 mg/kg, iv measured for 24 hrs by LC-MS/MS analysis; format: ADME, organism-based; conditions: in vivo
[4] = AUC (0 to t) in C57BL/6J mouse at 5 mg/kg, ip measured for 24 hrs by LC-MS/MS analysis; format: ADME, organism-based; conditions: in vivo
Mus musculus [5] = assay: Anti-inflammatory activity in DSS-induced colitis C57BL/6 mouse model harboring NLRP3 KO assessed as reduction in inflammatory cell infiltration in colon tissue at 20 mg/kg, ip administered daily for 10 days by H and E staining based analysis; format: functional, organism-based; conditions: time 10.0 day
Mus musculus [6] = assay: Anti-inflammatory activity in DSS-induced colitis C57BL/6 mouse model harboring NLRP3 KO assessed as reduction in IL-1beta level at 20 mg/kg, ip administered daily for 10 days […]; format: functional, organism-based; conditions: time 10.0 day
[7] = Half life in C57BL/6J mouse at 5 mg/kg, ip measured for 24 hrs by LC-MS/MS analysis; format: ADME, organism-based; conditions: in vivo
[8] = Cmax in C57BL/6J mouse at 5 mg/kg, ip measured for 24 hrs by LC-MS/MS analysis; format: ADME, organism-based; conditions: in vivo
Mus musculus [9] = assay: Anti-inflammatory activity in DSS-induced colitis C57BL/6 mouse model assessed as suppression of disease activity index administered intraperitoneally daily for 10 days; format: functional, organism-based; conditions: dose 5-20 mg/kg, route ip, time 10.0 day
Mus musculus [10] = assay: Anti-inflammatory activity in DSS-induced colitis C57BL/6 mouse model assessed as reduction in intestinal mucosal damage in colon tissue at 5 to 20 mg/kg, ip administered daily for 10 days by H and E staining based analysis; format: functional, organism-based; conditions: dose 5-20 mg/kg, time 10.0 day
[11] = AUC (0 to t) in C57BL/6J mouse at 5 mg/kg, iv measured for 24 hrs by LC-MS/MS analysis; format: ADME, organism-based; conditions: in vivo
Mus musculus [12] = assay: Anti-inflammatory activity in DSS-induced colitis C57BL/6 mouse model harboring NLRP3 KO assessed as reduction in colon length shortening at 20 mg/kg, ip administered daily for 10 days; format: functional, organism-based; conditions: time 10.0 day
THP-1 [13] = assay: Cytotoxicity against PMA-differentiated human THP-1 cells assessed as reduction in cell viability at 50 to 5000 nM incubated for 24 hrs by MTT assay; format: toxicity, cell-based; conditions: thp-1, 24 h, 5 µM, dose 50-5000 nM
[14] = biological target: Interleukin-1 beta (Homo sapiens) (UniProt P01584); assay: Inhibition of IL-1beta in PMA-differentiated human THP-1 cells at 200 nM co-incubated with compound and LPS for 24 hrs by ELISA relative to control; format: cell-based
Chain of Interleukin-1 beta (Homo sapiens) (P01584 117-269 limits assumed): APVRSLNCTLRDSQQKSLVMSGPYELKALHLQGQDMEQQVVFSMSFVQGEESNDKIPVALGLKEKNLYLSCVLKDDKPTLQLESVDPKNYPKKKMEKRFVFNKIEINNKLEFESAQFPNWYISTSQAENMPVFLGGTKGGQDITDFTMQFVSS

Mus musculus [15] = assay: Anti-inflammatory activity in DSS-induced colitis C57BL/6 mouse model harboring NLRP3 KO assessed as reduction in intestinal mucosal damage in colon tissue at 20 mg/kg, ip administered daily for 10 days by H and E staining based analysis; format: functional, organism-based; conditions: time 10.0 day
[16] = Clearance in C57BL/6J mouse at 5 mg/kg, iv measured for 24 hrs by LC-MS/MS analysis; format: ADME, organism-based; conditions: in vivo
[17] = AUC (0 to infinity) in C57BL/6J mouse at 5 mg/kg, iv measured for 24 hrs by LC-MS/MS analysis; format: ADME, organism-based; conditions: in vivo
THP-1 [18] = assay: Effect on NLRP3 mRNA expression in PMA-differentiated human THP-1 cells co-incubated with compound and LPS for 24 hrs by qRT-PCR analysis; format: functional, cell-based
[19] = Volume of distribution at steady state in C57BL/6J mouse at 5 mg/kg, iv measured for 24 hrs by LC-MS/MS analysis; format: ADME, organism-based; conditions: in vivo, read-out: Vdss
[20] = Apparent volume of distribution in C57BL/6J mouse at 5 mg/kg, iv measured for 24 hrs by LC-MS/MS analysis; format: ADME, organism-based; conditions: in vivo, read-out: Vz
[21] = Oral bioavailability in C57BL/6J mouse at 5 mg/kg measured for 24 hrs by LC-MS/MS analysis; format: ADME, organism-based; conditions: in vivo
Mus musculus [22] = assay: Anti-inflammatory activity in DSS-induced colitis C57BL/6 mouse model assessed as reduction in colon tissue shortening at 5 to 20 mg/kg, ip administered daily for 10 days; format: functional, organism-based; conditions: dose 5-20 mg/kg, time 10.0 day
Mus musculus [23] = assay: Anti-inflammatory activity in DSS-induced colitis C57BL/6 mouse model assessed as reduction in NLRP3 level in colon tissue at 5 to 20 mg/kg, ip administered daily for 10 days by IHC analysis; format: functional, organism-based; conditions: dose 5-20 mg/kg, time 10.0 day
Mus musculus [24] = assay: Anti-inflammatory activity in DSS-induced colitis C57BL/6 mouse model harboring NLRP3 KO assessed as reduction in loss of intestinal crypts in colon tissue at 20 mg/kg, ip administered daily for 10 days by H and E staining based analysis; format: functional, organism-based; conditions: time 10.0 day
Mus musculus [25] = assay: Anti-inflammatory activity in DSS-induced colitis C57BL/6 mouse model assessed as reduction in weight loss at 5 to 20 mg/kg, ip administered daily for 10 days; format: functional, organism-based; conditions: dose 5-20 mg/kg, time 10.0 day
[26] = biological target: Interleukin-1 beta (Homo sapiens) (UniProt P01584); assay: Inhibition of IL-1beta in PMA-differentiated human THP-1 cells at 100 nM co-incubated with compound and LPS for 24 hrs by ELISA relative to control; format: cell-based
Mus musculus [27] = assay: Anti-inflammatory activity in DSS-induced colitis C57BL/6 mouse model assessed as reduction in IL-1beta level in colon tissue at 5 to 20 mg/kg, ip administered daily for 10 days by IHC analysis; format: functional, organism-based; conditions: dose 5-20 mg/kg, time 10.0 day
[28] = AUC (0 to infinity) in C57BL/6J mouse at 5 mg/kg, ip measured for 24 hrs by LC-MS/MS analysis; format: ADME, organism-based; conditions: in vivo

- half-life [3]: 0.94 h
- AUC(0-t) at 24 h [4]: 551 ng·h/mL
- half-life [7]: 1.26 h
- Cmax [8]: 555 ng/mL
- AUC(0-t) at 24 h [11]: 2960 ng·h/mL
- inhibition [14]: 73.6%
- clearance [16]: 28.4 mL/min/kg
- AUC(0-inf) [17]: 2970 ng·h/mL
- Vd [19]: 0.39 L/kg
- Vd [20]: 2.31 L/kg
- bioavailability [21]: 19%
- inhibition [26]: 45.8%
- AUC(0-inf) [28]: 562 ng·h/mL
SMILES: O=C(Nc1c2c(cc3c1CCC3)CCC2)NS(=O)(=O)c1ccc(OCCOCCOCCOCCN2C(=O)/C(=C/c3cc(Br)c(O)c(Br)c3)c3cc(I)ccc32)cc1
- Activity (Mus musculus [1]): Active
- Activity (Mus musculus [2]): Active
- Activity (Mus musculus [5]): inactive
- Activity (Mus musculus [6]): inactive
- Activity (Mus musculus [9]): Dose-Dependent Effect
- Activity (Mus musculus [10]): Active
- Activity (Mus musculus [12]): inactive
- Activity (THP-1 [13]): Non-Toxic
- Activity (Mus musculus [15]): inactive
- Activity (THP-1 [18]): inactive
- Activity (Mus musculus [22]): Active
- Activity (Mus musculus [23]): Active
- Activity (Mus musculus [24]): inactive
- Activity (Mus musculus [25]): Active
- Activity (Mus musculus [27]): Active

- inhibition [14]: 19.2%
- inhibition [26]: 27.7%
SMILES: COc1cc(/C=C2/C(=O)N(CCCCCCCCOc3ccc(S(=O)(=O)NC(=O)Nc4c5c(cc6c4CCC6)CCC5)cc3)c3ccc(Br)cc32)cc(Br)c1O

- inhibition [14]: 39.1%
- inhibition [26]: 16.5%
SMILES: COc1cc(/C=C2/C(=O)N(CCOCCOCCOc3ccc(S(=O)(=O)NC(=O)Nc4c5c(cc6c4CCC6)CCC5)cc3)c3ccc(Br)cc32)cc(Br)c1O

- inhibition [14]: 43.1%
- inhibition [26]: 11%
SMILES: COc1ccc(Cl)cc1C(=O)NCCc1ccc(S(=O)(=O)NCCOCCOCCN2C(=O)/C(=C/c3cc(Br)c(O)c(OC)c3)c3cc(Br)ccc32)cc1

- inhibition [14]: 49.2%
- inhibition [26]: 42.8%
SMILES: O=C(Nc1c2c(cc3c1CCC3)CCC2)NS(=O)(=O)c1ccc(OCCCCN2C(=O)/C(=C/c3cc(Br)c(O)c(Br)c3)c3cc(Br)ccc32)cc1

- inhibition [14]: 23.1%
- inhibition [26]: 39%
SMILES: COc1ccc(Cl)cc1C(=O)NCCc1ccc(S(=O)(=O)NCCOCCN2C(=O)/C(=C/c3cc(Br)c(O)c(OC)c3)c3cc(Br)ccc32)cc1

- inhibition [14]: 41.7%
- inhibition [26]: 50.5%
SMILES: O=C(Nc1c2c(cc3c1CCC3)CCC2)NS(=O)(=O)c1ccc(OCCOCCOCCN2C(=O)/C(=C/c3cc(Br)c(O)c(Br)c3)c3cc(I)ccc32)cc1

- inhibition [14]: 40.8%
- inhibition [26]: 19.2%
SMILES: COc1cc(/C=C2/C(=O)N(CCCCOc3ccc(S(=O)(=O)NC(=O)Nc4c5c(cc6c4CCC6)CCC5)cc3)c3ccc(Br)cc32)cc(Br)c1O

- inhibition [14]: 39.6%
- inhibition [26]: -5.3%
SMILES: O=C(Nc1c2c(cc3c1CCC3)CCC2)NS(=O)(=O)c1ccc(OCCCCCCCCN2C(=O)/C(=C/c3cc(Br)c(O)c(Br)c3)c3cc(Br)ccc32)cc1

- inhibition [14]: 32.7%
- inhibition [26]: 57.6%
SMILES: COc1cc(/C=C2/C(=O)N(CCOCCOCCOCCOc3ccc(S(=O)(=O)NC(=O)Nc4c5c(cc6c4CCC6)CCC5)cc3)c3ccc(Br)cc32)cc(Br)c1O

- inhibition [14]: 66.6%
- inhibition [26]: 6.7%
SMILES: O=C(Nc1c2c(cc3c1CCC3)CCC2)NS(=O)(=O)c1ccc(OCCOCCOCCOCCN2C(=O)/C(=C/c3cc(Br)c(O)c(Br)c3)c3cc(Br)ccc32)cc1

- inhibition [14]: 19.5%
- inhibition [26]: 14.8%
SMILES: O=C(Nc1c2c(cc3c1CCC3)CCC2)NS(=O)(=O)c1ccc(OCCCCCCCCCCCCN2C(=O)/C(=C/c3cc(Br)c(O)c(Br)c3)c3cc(Br)ccc32)cc1

- inhibition [14]: 37.9%
- inhibition [26]: -7.2%
SMILES: COc1ccc(Cl)cc1C(=O)NCCc1ccc(S(=O)(=O)NCCCCCCCCN2C(=O)/C(=C/c3cc(Br)c(O)c(OC)c3)c3cc(Br)ccc32)cc1

- inhibition [14]: 45.2%
- inhibition [26]: 17.8%
SMILES: O=C(Nc1c2c(cc3c1CCC3)CCC2)NS(=O)(=O)c1ccc(OCCOCCOCCN2C(=O)/C(=C/c3cc(Br)c(O)c(Br)c3)c3cc(Br)ccc32)cc1

- inhibition [14]: 26.5%
- inhibition [26]: 41.9%
SMILES: O=C(Nc1c2c(cc3c1CCC3)CCC2)NS(=O)(=O)c1ccc(OCCCCCCCCN2C(=O)/C(=C/c3cc(Br)c(O)c(Br)c3)c3cc(I)ccc32)cc1

- inhibition [14]: 59.2%
- inhibition [26]: 35.6%
SMILES: COc1cc(/C=C2/C(=O)N(CCOCCOc3ccc(S(=O)(=O)NC(=O)Nc4c5c(cc6c4CCC6)CCC5)cc3)c3ccc(Br)cc32)cc(Br)c1O

- inhibition [14]: 28%
- inhibition [26]: 7.3%
SMILES: COc1ccc(Cl)cc1C(=O)NCCc1ccc(S(=O)(=O)NCCCCCCCCCCN2C(=O)/C(=C/c3cc(Br)c(O)c(OC)c3)c3cc(Br)ccc32)cc1

- inhibition [14]: 7.9%
- inhibition [26]: 40.1%
SMILES: O=C(Nc1c2c(cc3c1CCC3)CCC2)NS(=O)(=O)c1ccc(OCCCCCCCCCCCCN2C(=O)/C(=C/c3cc(Br)c(O)c(Br)c3)c3cc(I)ccc32)cc1

- inhibition [14]: 98.2%
- inhibition [26]: 70.4%
SMILES: O=C(Nc1c2c(cc3c1CCC3)CCC2)NS(=O)(=O)c1ccc(OCCOCCN2C(=O)/C(=C/c3cc(Br)c(O)c(Br)c3)c3cc(I)ccc32)cc1

- inhibition [14]: 35.3%
- inhibition [26]: 20.4%
SMILES: COc1cc(/C=C2/C(=O)N(CCCCCCCCCCCCOc3ccc(S(=O)(=O)NC(=O)Nc4c5c(cc6c4CCC6)CCC5)cc3)c3ccc(Br)cc32)cc(Br)c1O

- inhibition [14]: 36.2%
- inhibition [26]: 50.4%
SMILES: COc1ccc(Cl)cc1C(=O)NCCc1ccc(S(=O)(=O)NCCCCCN2C(=O)/C(=C/c3cc(Br)c(O)c(OC)c3)c3cc(Br)ccc32)cc1

- inhibition [14]: 48.5%
- inhibition [26]: 43.1%
SMILES: O=C(Nc1c2c(cc3c1CCC3)CCC2)NS(=O)(=O)c1ccc(OCCCCN2C(=O)/C(=C/c3cc(Br)c(O)c(Br)c3)c3cc(I)ccc32)cc1

- inhibition [14]: 67.3%
- inhibition [26]: 20.5%
SMILES: O=C(Nc1c2c(cc3c1CCC3)CCC2)NS(=O)(=O)c1ccc(OCCOCCN2C(=O)/C(=C/c3cc(Br)c(O)c(Br)c3)c3cc(Br)ccc32)cc1

- inhibition [14]: -4.9%
- inhibition [26]: 8.2%
SMILES: COc1ccc(Cl)cc1C(=O)NCCc1ccc(S(=O)(=O)NCCOCCOCCOCCN2C(=O)/C(=C/c3cc(Br)c(O)c(OC)c3)c3cc(Br)ccc32)cc1
